In article PMC9102066, “Cloning and Functional Characterization of Dog OCT1 and OCT2: Another Step in Exploring Species Differences in Organic Cation Transporters” (International Journal of Molecular Sciences, 2022):
Counter-ions that a name gives are not always drawn.

What was measured:
dog OCT1 = assay: Uptake in HEK293 cells stably overexpressing dog OCT1; details: for Km at 2 min: dog; for CLint ± SEM, dOCT1: intrinsic clearance = vmax divided by KM for each experiment
Procedure: The total uptake is shown for the overexpressing and control cells (left hand side). OCT1-mediated uptake (right hand side) was calculated by subtracting the uptake of control cells (pcDNA5) from the uptake of OCT1-overexpressing cells. The means and standard errors of the means are shown for at least three independent experiments.
For generation and characterization, see the Supplementary Methods, Figure S7, and [29, 47]. Cells were cultured in Dulbecco’s Modified Eagle’s Medium (DMEM) supplemented with 10% FBS, 100 U/mL penicillin, and 100 µg/mL streptomycin at 37 °C and 5% CO2. Cells were passaged twice a week.
At 48 h prior to the experiment, 6 × 10^5 cells were seeded per well in 12-well plates pre-coated with poly-D-lysine.
Cellular uptake experiments were performed at 37 °C and pH 7.4 using Hanks’ Buffered Salt Solution (HBSS) supplemented with 10 mM HEPES (referred to as HBSS+ in the following). Cells were washed with 1 mL pre-warmed (37 °C) HBSS+ and uptake was initiated by adding 400 µL of pre-warmed HBSS+ containing the substrate. Uptake was allowed for exactly 2 min and stopped by adding 2 mL ice-cold HBSS+. Cells were washed twice with 2 mL ice-cold HBSS+ then lysed with 80% acetonitrile supplemented with internal standard. The intracellularly accumulated substrate concentrations were measured using LC-MS/MS as described in the following and normalized to the amount of total protein in the samples as measured using the bicinchoninic acid assay.
Intracellular substrate concentrations were quantified using LC-MS/MS. […] The pellet was reconstituted with 200 µL 0.1% formic acid and between 5 and 10 µL was injected into the LC-MS/MS system (Table S2).
An API4000 QTRAP tandem mass spectrometer with ESI interface (AB SCIEX, Darmstadt, Germany) coupled to a Shimadzu Nexera X2 UHPLC system with LC 30AD pumps and SiL 30AC autosampler (Shimadzu, Duisburg, Germany) was used for analysis.
Intrinsic clearance CLint was calculated by dividing vmax by KM for each experiment. Kinetic parameters were compared between OCT1 orthologs using an ANOVA followed by Tukey’s honestly significant difference post hoc comparisons in SPSS Statistics version 28 (SPSS Inc., IBM, Chicago, IL, USA).

human OCT1 = target: T1, human OCT1 (Homo sapiens, UniProt O15245); assay: Uptake in HEK293 cells stably overexpressing human OCT1; type: in vitro ADME; details: for CLint ± SEM, hOCT1: intrinsic clearance = vmax divided by KM for each experiment
T1 construct: expressed in transfected cells; host or cells: HEK293 (Flp-In system)
T1 sequence (O15245 1-554): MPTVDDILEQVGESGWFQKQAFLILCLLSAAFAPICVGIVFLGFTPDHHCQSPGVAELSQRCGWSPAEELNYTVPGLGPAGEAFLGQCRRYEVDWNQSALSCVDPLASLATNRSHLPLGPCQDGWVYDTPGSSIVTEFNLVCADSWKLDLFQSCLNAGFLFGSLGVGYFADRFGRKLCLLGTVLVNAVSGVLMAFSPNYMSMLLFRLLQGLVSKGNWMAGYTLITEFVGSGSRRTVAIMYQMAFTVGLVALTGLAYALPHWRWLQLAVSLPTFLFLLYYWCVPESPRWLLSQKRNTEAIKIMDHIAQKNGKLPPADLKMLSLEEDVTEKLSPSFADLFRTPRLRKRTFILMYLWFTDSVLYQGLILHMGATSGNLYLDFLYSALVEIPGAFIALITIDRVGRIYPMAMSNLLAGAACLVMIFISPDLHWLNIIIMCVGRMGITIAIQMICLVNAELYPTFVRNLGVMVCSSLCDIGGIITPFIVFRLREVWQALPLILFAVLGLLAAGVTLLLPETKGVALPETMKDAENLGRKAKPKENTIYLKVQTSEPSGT
Source text: (§1) Cells were passaged twice a week.
(§2) Intracellular substrate concentrations were quantified using LC-MS/MS.

mouse OCT1 = target: T2, mouse OCT1 (Mus musculus, UniProt O08966); assay: Uptake in HEK293 cells stably overexpressing mouse OCT1; type: in vitro ADME; details: intrinsic clearance = vmax divided by KM for each experiment
T2 construct: expressed in transfected cells; host or cells: HEK293 (Flp-In system)
T2 sequence (O08966 1-556): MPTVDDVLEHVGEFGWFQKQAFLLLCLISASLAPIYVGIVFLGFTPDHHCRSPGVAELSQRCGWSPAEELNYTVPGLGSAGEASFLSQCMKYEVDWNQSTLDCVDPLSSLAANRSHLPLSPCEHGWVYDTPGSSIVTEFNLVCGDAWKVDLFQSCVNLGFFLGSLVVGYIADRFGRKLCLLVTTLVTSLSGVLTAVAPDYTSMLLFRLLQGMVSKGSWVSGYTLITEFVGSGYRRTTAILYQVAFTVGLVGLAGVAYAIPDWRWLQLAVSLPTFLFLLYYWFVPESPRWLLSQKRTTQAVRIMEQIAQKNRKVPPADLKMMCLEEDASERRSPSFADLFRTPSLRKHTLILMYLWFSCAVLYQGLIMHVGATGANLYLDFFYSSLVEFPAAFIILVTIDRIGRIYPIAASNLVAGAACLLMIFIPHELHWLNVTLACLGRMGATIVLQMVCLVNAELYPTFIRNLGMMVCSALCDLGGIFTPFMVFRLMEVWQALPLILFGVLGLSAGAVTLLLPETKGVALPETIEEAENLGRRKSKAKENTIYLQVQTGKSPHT
Source text: as §1, §2

dog OCT2 = assay: Uptake in HEK293 cells stably overexpressing dog OCT2; type: in vitro ADME
Source text: as §1, §2

human OCT2 = target: T3, human OCT2 (Homo sapiens, UniProt O15244); assay: Uptake in HEK293 cells stably overexpressing human OCT2; type: in vitro ADME; details: for CLint ± SEM, hOCT2: intrinsic clearance = vmax divided by KM for each experiment
T3 construct: expressed in transfected cells; host or cells: HEK293 (Flp-In system)
T3 sequence (O15244 1-555): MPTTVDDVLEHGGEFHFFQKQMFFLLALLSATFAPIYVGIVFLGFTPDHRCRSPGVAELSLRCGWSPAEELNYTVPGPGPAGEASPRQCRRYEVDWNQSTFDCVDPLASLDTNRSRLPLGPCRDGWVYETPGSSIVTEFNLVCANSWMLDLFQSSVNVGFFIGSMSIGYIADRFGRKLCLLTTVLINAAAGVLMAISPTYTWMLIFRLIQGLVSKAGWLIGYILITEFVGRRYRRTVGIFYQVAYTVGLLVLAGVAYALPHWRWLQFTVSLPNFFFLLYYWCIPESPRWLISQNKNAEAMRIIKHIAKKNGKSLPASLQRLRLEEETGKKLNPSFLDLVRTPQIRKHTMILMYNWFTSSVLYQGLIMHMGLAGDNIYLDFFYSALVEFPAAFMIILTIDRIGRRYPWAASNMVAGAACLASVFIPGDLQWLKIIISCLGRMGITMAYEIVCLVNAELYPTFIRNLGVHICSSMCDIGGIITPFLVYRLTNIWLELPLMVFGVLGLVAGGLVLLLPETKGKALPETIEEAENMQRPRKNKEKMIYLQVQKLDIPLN
Source text: as §1, §2

[1] = OCT1-mediated uptake, HEK293, 2 min, 37 °C, pH 7.4, control cells subtracted
[2] = OCT2-mediated uptake, HEK293, 2 min, 37 °C, pH 7.4, control cells subtracted

Compound | vmax ± SEM, dOCT1 (dog OCT1; [1]) | Km at 2 min (dog OCT1; HEK293 cells stably overexpressing dog OCT1, pH 7.4) [µM] | CLint ± SEM, dOCT1 (dog OCT1) | vmax ± SEM, hOCT1 (human OCT1; [1]) | Km at 2 min (human OCT1; human, HEK293 cells stably overexpressing human OCT1, pH 7.4, OCT1-mediated uptake, HEK293, 2 min, Michaelis–Menten fit, read-out: KM ± SEM, hOCT1) [µM] | CLint ± SEM, mOCT1 (mouse OCT1) | vmax ± SEM, dOCT2 (dog OCT2; [2]) | Km at 2 min (dog OCT2; dog, HEK293 cells stably overexpressing dog OCT2, pH 7.4, OCT2-mediated uptake, HEK293, 2 min, Michaelis–Menten fit, read-out: KM ± SEM, dOCT2) [µM] | CLint ± SEM, dOCT2 (dog OCT2; intrinsic clearance = vmax divided by KM for each experiment) | vmax ± SEM, hOCT2 (human OCT2; [2]) | Km at 2 min (human OCT2; human, HEK293 cells stably overexpressing human OCT2, pH 7.4, OCT2-mediated uptake, HEK293, 2 min, Michaelis–Menten fit, read-out: KM ± SEM, hOCT2) [µM] | CLint ± SEM, hOCT2 (human OCT2) | fold lower affinity (higher KM) by dog OCT1 than human OCT1 (dog OCT1; dog OCT1 versus human OCT1) [fold] | Km at 2 min (dog OCT1; pH 7.4) [µM] | CLint ± SEM, dOCT1 (dog OCT1; listed as fenoterol) | fold higher affinity (human OCT1 relative to dog OCT1, as worded in the discussion) (human OCT1; discussion wording, direction not spelled out) [fold] | CLint ± SEM, hOCT1 (human OCT1) | CLint ± SEM, hOCT1 (human OCT1; listed as fenoterol) | CLint ± SEM, mOCT1 (mouse OCT1; listed as fenoterol)
CN(C)C(=N)N=C(N)N [Metformin, metformin hydrochloride] | 11,373 ± 714 pmol × min^−1 × mg Protein^−1 | 204 ± 41.8 | 63.1 ± 12.0 µL × min^−1 × mg Protein^−1 | 10,465 ± 1306 pmol × min^−1 × mg Protein^−1 | 1090 ± 297 | 38.7 ± 6.23 µL × min^−1 × mg Protein^−1 | 21,578 ± 606 pmol × min^−1 × mg Protein^−1 | 365 ± 11.5 | 59.2 ± 2.76 µL × min^−1 × mg Protein^−1 | 29,650 ± 1457 pmol × min^−1 × mg Protein^−1 | 766 ± 95.4 | 39.9 ± 5.27 µL × min^−1 × mg Protein^−1 |  |  |  |  |  |  | 
CC(Cc1ccc(O)cc1)NCC(O)c1cc(O)cc(O)c1 (stereo not shown) [Fenoterol, Fenoterol hydrochloride] |  |  | 80.7 ± 7.76 µL × min^−1 × mg Protein^−1 |  |  | 88.5 ± 15.5 µL × min^−1 × mg Protein^−1 |  |  |  |  |  | 28.0 ± 0.95 µL × min^−1 × mg Protein^−1 | 14.3 | 16.8 ± 1.09 | 80.7 µL × min^−1 × mg Protein^−1 | 14.3 | 88.3 ± 3.85 µL × min^−1 × mg Protein^−1 | 88.3 µL × min^−1 × mg Protein^−1 | 88.5 µL × min^−1 × mg Protein^−1
